# Measurements from patent US8440674B2, “Substituted pyrimidine compounds as RAF inhibitors and methods of use” (Amgen Inc., priority 2005, dated 2013).
# Where two headings read alike, the source gives them in different places.
# Key:
# recombinant HuBraf V600E = recombinant HuBraf V600E (Homo sapiens, UniProt P15056, V600E); experiment: B-raf Homogenous Time Resolved Fluorescent (HTRF) kinase assay; type: biochemical; settings: substrate MEK1, 10 uM ATP; threshold lists; read-out: IC50 for the inhibition of B-raf as measured by the HTRF assay
# Chain of recombinant HuBraf V600E (P15056 whole entry V600E): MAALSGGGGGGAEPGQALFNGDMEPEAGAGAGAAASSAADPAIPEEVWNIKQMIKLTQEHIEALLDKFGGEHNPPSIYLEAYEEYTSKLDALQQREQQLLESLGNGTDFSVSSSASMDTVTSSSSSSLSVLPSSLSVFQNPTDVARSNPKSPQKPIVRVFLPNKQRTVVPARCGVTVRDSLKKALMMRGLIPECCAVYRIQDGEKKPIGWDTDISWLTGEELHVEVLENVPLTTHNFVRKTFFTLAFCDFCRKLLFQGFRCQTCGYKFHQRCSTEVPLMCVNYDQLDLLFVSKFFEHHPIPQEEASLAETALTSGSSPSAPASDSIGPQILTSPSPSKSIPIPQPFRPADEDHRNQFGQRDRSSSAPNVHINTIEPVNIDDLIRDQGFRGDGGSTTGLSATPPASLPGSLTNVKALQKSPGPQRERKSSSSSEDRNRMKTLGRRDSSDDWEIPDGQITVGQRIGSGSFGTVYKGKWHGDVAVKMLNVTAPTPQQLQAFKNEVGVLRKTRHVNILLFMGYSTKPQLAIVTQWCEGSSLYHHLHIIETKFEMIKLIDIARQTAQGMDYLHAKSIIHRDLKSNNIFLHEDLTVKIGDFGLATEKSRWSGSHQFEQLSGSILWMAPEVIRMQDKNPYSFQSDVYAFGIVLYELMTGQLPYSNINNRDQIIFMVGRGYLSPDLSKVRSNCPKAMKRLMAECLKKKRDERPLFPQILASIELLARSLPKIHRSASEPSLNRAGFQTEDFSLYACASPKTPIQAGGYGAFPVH
# Experimental: A Homogeneous Time Resolved Fluorescence (HTRF) kinase assay was established to assay the ability of compounds to inhibit human mutant Braf kinase activity on the substrate MEK1. […] The final concentration of the kinase reaction buffer is 50 mM Tris-HCL pH 7.5, 10 mM MgCl2, 0.5% glucose, 0.5 mM DTT, 0.01% BSA.
# The detection reaction proceeds for one hour and is read on a RubyStar (BMG Labtech) counter. IC50s for the test compounds are generated using Excel-XLfit software.
# [1] = tested on: A375 cells, a human melanoma cell line having the V600E mutant Braf; experiment: B-Raf cell-based assay (ratio of phospho-ERK1/2 to total ERK1/2); settings: A-375, 1 h, P-ERK/total ERK, 60 minute incubation, read-out: IC50 for the inhibition of B-raf as measured by the cell-based assay
# Experimental: A cell-based assay was optimized to assay the ability of compounds to inhibit Braf activity in a whole cell context. […] The cell-based assay quantifies the ratio of phospho-ERK1/2 to total ERK1/2 and can thereby assay the cellular inhibition of Braf kinase activity.
# A375 cells are plated into 96 well plates and grown to confluence. The cells are then changed into starve media (DMEM/0.1% BSA) for 60 minutes. Compounds in DMSO dose curves are then diluted in starve media and added to cells. […] After a 60 minute incubation the cells are fixed for 20 minutes at room temperature in 4% formaldehyde with 0.1%Triton X-100, protease and phosphatase inhibitors in PBS. The cells are washed four times in PBS then blocked for 60 minutes using a one to one mix of Odyssey blocking buffer (Li-Cor Biosciences, Inc) and PBS. Primary antibodies (rabbit anti-phospho p42/p44 MAPK (P-ERK1/2) from Cell Signaling Technology and mouse anti-ERK2 from Santa Cruz Biotechnology) are diluted in blocking buffer, added to the cells and incubated overnight at 4° C. The cells are then washed four times in PBS/0.1% Tween-20. Secondary antibodies (anti-mouse IRDye 800CW from Rockland, Inc and anti-rabbit AlexaFlour680 from Molecular Probes) are diluted in blocking buffer/0.5% Tween and incubated on cells for 60 minutes. After 4 washes in PBS/0.1% Tween-20 the microplate is scanned on an Odyssey Infrared Imager (Li-Cor Bioscience) which can read the signal given by the two secondary antibodies on their respective channels. The ratio of P-ERK/total ERK is determined and IC50s generated using Excel-XLfit software.
SMILES,IC50 (recombinant HuBraf V600E) [nM],IC50 ([1]; threshold list) [nM],IC50 ([1]; threshold lists) [nM]
"CNc1ncc2cc(-c3c(C)ccc4c(Nc5cccc(C(C)(C)C)c5)nccc34)ccc2n1 [Example 28, 6-(1-((3-(1,1-dimethylethyl)phenyl)amino)-6-methyl-5-isoquinolinyl)-N-methyl-2-quinazolinamine]",≤ 250,≤ 500,–
"CNc1ncc2cc(-c3c(C)ccc4c(Nc5cccc(Cl)c5)nccc34)ccc2n1 [Example 29, 6-(1-((3-chlorophenyl)amino)-6-methyl-5-isoquinolinyl)-N-methyl-2-quinazolinamine]",≤ 250,≤ 500,–
"CNc1ncc2cc(-c3c(C)ccc4c(Nc5ccc6c(c5)N(C(C)=O)CC6(C)C)nccc34)ccc2n1 [Example 33, 6-(1-((1-acetyl-3,3-dimethyl-2,3-dihydro-1H-indol-6-yl)amino)-6-methyl-5-isoquinolinyl)-N-methyl-2-quinazolinamine]",≤ 250,≤ 500,–
"CNc1ncc2cc(-c3c(C)ccc4c(Nc5cc(C(F)(F)F)ccn5)nccc34)ccc2n1 [Example 34, N-methyl-6-(6-methyl-1-((4-(trifluoromethyl)-2-pyridinyl)amino)-5-isoquinolinyl)-2-quinazolinamine]",≤ 250,≤ 500,–
"CNc1ncc2cc(-c3c(C)ccc4c(Nc5ccc(OC)c(C(F)(F)F)c5)nccc34)ccc2n1 [Example 35, N-methyl-6-(6-methyl-1-((4-(methyloxy)-3-(trifluoromethyl)phenyl)amino)-5-isoquinolinyl)-2-quinazolinamine]",≤ 250,≤ 500,–
"CNc1ncc2cc(-c3c(C)ccc4c(Nc5nnc(C6CC6)s5)nccc34)ccc2n1 [Example 36, 6-(1-((5-cyclopropyl-1,3,4-thiadiazol-2-yl)amino)-6-methyl-5-isoquinolinyl)-N-methyl-2-quinazolinamine]",≤ 250,≤ 500,–
"CNc1ncc2cc(-c3c(C)ccc4c(Nc5ccc6[nH]ncc6c5)nccc34)ccc2n1 [Example 37, 6-(1-(1H-indazol-5-ylamino)-6-methyl-5-isoquinolinyl)-N-methyl-2-quinazolinamine]",≤ 250,≤ 500,–
"CNc1ncc2cc(-c3c(C)ccc4c(Nc5ccc6c(c5)CCC6)nccc34)ccc2n1 [Example 38, 6-(1-(2,3-dihydro-1H-inden-5-ylamino)-6-methyl-5-isoquinolinyl)-N-methyl-2-quinazolinamine]",≤ 250,≤ 500,–
"CNc1ncc2cc(-c3c(C)ccc4c(Nc5ccc6sc(C)nc6c5)nccc34)ccc2n1 [Example 39, N-methyl-6-(6-methyl-1-((2-methyl-1,3-benzothiazol-5-yl)amino)-5-isoquinolinyl)-2-quinazolinamine]",≤ 250,≤ 500,–
"CNc1ncc2cc(-c3c(C)ccc4c(Nc5ccc(F)c(OC(C)C)c5)nccc34)ccc2n1 [Example 40, 6-(1-((4-fluoro-3-((1-methylethyl)oxy)phenyl)amino)-6-methyl-5-isoquinolinyl)-N-methyl-2-quinazolinamine]",≤ 250,≤ 500,–
"CNc1ncc2cc(-c3c(C)ccc4c(Nc5cccc(OC(F)(F)F)c5)ncnc34)ccc2n1 [Example 50, N^2,7′-dimethyl-N^4′-(3-((trifluoromethyl)oxy)phenyl)-6,8′-biquinazoline-2,4′-diamine]",≤ 250,≤ 500,–
"CNc1ncc2cc(-c3c(C)ccc4c(Nc5ccc(OC)c(C(F)(F)F)c5)ncnc34)ccc2n1 [Example 52, N^2,7′-dimethyl-N^4′-(4-(methyloxy)-3-(trifluoromethyl)phenyl)-6,8′-biquinazoline-2,4′-diamine]",≤ 250,≤ 500,–
"CNc1ncc2cc(-c3c(C)ccc4c(Nc5cc(C(C)(C)C)nn5C)ncnc34)ccc2n1 [Example 53, N^4′-(3-(1,1-dimethylethyl)-1-methyl-1H-pyrazol-5-yl)-N^2,7′-dimethyl-6,8′-biquinazoline-2,4′-diamine]",≤ 250,≤ 500,–
"CNc1ncc2cc(-c3c(C)ccc4c(Nc5ccc6c(c5)N(C(C)=O)CC6(C)C)ncnc34)ccc2n1 [Example 54, N^4′-(1-acetyl-3,3-dimethyl-2,3-dihydro-1H-indol-6-yl)-N^2,7′-dimethyl-6,8′-biquinazoline-2,4′-diamine]",≤ 250,≤ 500,–
"CNc1ncc2cc(-c3c(C)ccc4c(Nc5cncc(C(F)(F)F)c5)ncnc34)ccc2n1 [Example 56, N^2,7′-dimethyl-N^4′-(5-(trifluoromethyl)-3-pyridinyl)-6,8′-biquinazoline-2,4′-diamine]",≤ 250,≤ 500,–
"CNc1ncc2cc(-c3c(C)ccc4c(Nc5cccc(C(F)(F)F)c5)nn(C)c34)ccc2n1 [Example 63, 6-(1,6-dimethyl-3-((3-(trifluoromethyl)phenyl)amino)-1H-indazol-7-yl)-N-methyl-2-quinazolinamine]",≤ 250,≤ 500,–
"CNc1ncc2cc(-c3c(C)ccc4c(Nc5cccc(OC(F)(F)F)c5)nn(C)c34)ccc2n1 [Example 65, 6-(1,6-dimethyl-3-((3-((trifluoromethyl)oxy)phenyl)amino)-1H-indazol-7-yl)-N-methyl-2-quinazolinamine]",≤ 250,≤ 500,–
"CNc1cc(-c2cccnc2Nc2c(C)ccc3c(Nc4cccc(OC(F)(F)F)c4)nccc23)ncn1 [Example 68, 6-methyl-N^5-(3-(6-(methylamino)-4-pyrimidinyl)-2-pyridinyl)-N^1-(3-((trifluoromethyl)oxy)phenyl)-1,5-isoquinolinediamine]",≤ 250,≤ 500,–

# Results, then the molecule that gave them:
IC50 (recombinant HuBraf V600E) [nM],IC50 ([1]; threshold list) [nM],IC50 ([1]; threshold lists) [nM],SMILES
≤ 250,≤ 500,–,"CNc1ncc2cc(-c3c(C)ccc4c(Nc5cccc(C#N)c5)nccc34)ccc2n1 [Example 30, 3-((6-methyl-5-(2-(methylamino)-6-quinazolinyl)-1-isoquinolinyl)amino)benzonitrile]"
≤ 250,≤ 500,–,"CNc1ncc2cc(-c3c(C)ccc4c(Nc5cccc(OC(F)(F)F)c5)nccc34)ccc2n1 [Example 32, N-methyl-6-(6-methyl-1-((3-((trifluoromethyl)oxy)phenyl)amino)-5-isoquinolinyl)-2-quinazolinamine]"
≤ 250,≤ 500,–,"CNc1ncc2cc(-c3c(C)ccc4c(Nc5cncc(C(F)(F)F)c5)nccc34)ccc2n1 [Example 41, N-methyl-6-(6-methyl-1-((5-(trifluoromethyl)-3-pyridinyl)amino)-5-isoquinolinyl)-2-quinazolinamine]"
≤ 250,≤ 500,–,"CNc1ncc2cc(-c3c(C)ccc4c(Nc5cccc(C(F)(F)F)c5)ncnc34)ccc2n1 [Example 51, N^2,7′-dimethyl-N^4′-(3-(trifluoromethyl)phenyl)-6,8′-biquinazoline-2,4′-diamine]"
≤ 250,≤ 500,–,"CNc1ncc2cc(-c3c(C)ccc4c(Nc5ccc(Cl)c(C(F)(F)F)c5)ncnc34)ccc2n1 [Example 55, N^4′-(4-chloro-3-(trifluoromethyl)phenyl)-N^2,7′-dimethyl-6,8′-biquinazoline-2,4′-diamine]"
≤ 250,≤ 500,≤ 1000,"CNc1ncc2cc(-c3c(C)ccc4c(NC5CCC(C(C)(C)C)CC5)ncnc34)ccc2n1 (centres unmarked) [Example 57, N^4′-(4-(1,1-dimethylethyl)cyclohexyl)-N^2,7′-dimethyl-6,8′-biquinazoline-2,4′-diamine]"
≤ 250,≤ 500,≤ 1000,"CNc1ncc2cc(-c3c(C)ccc4c(Nc5ccc6sc(C)nc6c5)ncnc34)ccc2n1 [Example 58, N^2,7′-dimethyl-N^4′-(2-methyl-1,3-benzothiazol-5-yl)-6,8′-biquinazoline-2,4′-diamine]"
≤ 250,≤ 500,–,"CNc1ncc2cc(-c3c(C)ccc4c(Nc5ccc(OC)c(C(F)(F)F)c5)nn(C)c34)ccc2n1 [Example 64, 6-(1,6-dimethyl-3-((4-(methyloxy)-3-(trifluoromethyl)phenyl)amino)-1H-indazol-7-yl)-N-methyl-2-quinazolinamine]"
≤ 500,≤ 500,–,"CNc1cc(-c2cccnc2Nc2c(C)ccc3c(Nc4ccc(OC)c(C(F)(F)F)c4)nccc23)ncn1 [Example 70, N^1-(4-methoxy-3-(trifluoromethyl)phenyl)-6-methyl-N^5-(3-(6-(methylamino)pyrimidin-4-yl)pyridin-2-yl)isoquinoline-1,5-diamine]"
